Source: US7589089B2, “Inhibitors for GlyT-1” (Hoffmann-La Roche Inc., priority 2006, dated 2009)

biological target: T1, mGlyT-1b (Mus musculus, UniProt P28571); experiment: Glycine Uptake Inhibition Assay (mGlyT-1b); format: cell-based
T1 construct: host or cells: Flp-in-CHO
T1 sequence (P28571 1-651 isoform P28571-2): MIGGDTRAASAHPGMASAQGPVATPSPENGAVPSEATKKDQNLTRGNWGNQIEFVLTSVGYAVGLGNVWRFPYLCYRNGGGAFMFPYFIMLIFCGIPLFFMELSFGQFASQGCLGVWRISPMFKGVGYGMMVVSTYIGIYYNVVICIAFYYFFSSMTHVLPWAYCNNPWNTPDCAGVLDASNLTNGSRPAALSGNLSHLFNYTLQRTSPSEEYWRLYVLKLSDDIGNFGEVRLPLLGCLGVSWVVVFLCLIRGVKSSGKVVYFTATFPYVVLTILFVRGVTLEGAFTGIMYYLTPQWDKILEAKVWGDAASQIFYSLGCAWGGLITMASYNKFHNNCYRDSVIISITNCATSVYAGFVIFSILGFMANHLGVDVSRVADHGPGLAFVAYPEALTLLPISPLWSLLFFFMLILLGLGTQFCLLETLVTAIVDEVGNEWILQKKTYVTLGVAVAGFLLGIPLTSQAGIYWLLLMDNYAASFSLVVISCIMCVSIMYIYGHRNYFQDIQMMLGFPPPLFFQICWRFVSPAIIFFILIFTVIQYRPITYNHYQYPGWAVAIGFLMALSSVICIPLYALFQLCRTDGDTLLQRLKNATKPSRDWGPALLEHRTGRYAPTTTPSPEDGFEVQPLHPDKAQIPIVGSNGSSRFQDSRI
Method: DMEM complete medium: Nutrient mixture F-12 (Gibco Life-technologies), fetal bovine serum (FBS) 5%, (Gibco life technologies), Penicillin/Streptomycin 1% (Gibco life technologies), Hygromycin 0.6 mg/ml (Gibco life technologies), Glutamine 1 mM Gibco life technologies)
Uptake buffer (UB): 150 mM NaCl, 10 mM Hepes-Tris, pH 7.4, 1 mM CaCl2, 2.5 mM KCl, 2.5 mM MgSO4, 10 mM (+) D-glucose.
Flp-in™-CHO (Invitrogen Cat n° R758-07) cells stably transfected with mGlyT1b cDNA.
Glycine Uptake Inhibition Assay (mGlyT-1b)
On day 1 mammalian cells, (Flp-in™-CHO), transfected with mGlyT-1b cDNA, were plated at the density of 40,000 cells/well in complete F-12 medium, without hygromycin in 96-well culture plates. On day 2, the medium was aspirated and the cells were washed twice with uptake buffer (UB). The cells were then incubated for 20 min at 22° C. with either (i) no potential competitor, (ii) 10 mM non-radioactive glycine, (iii) a concentration of a potential inhibitor. A range of concentrations of the potential inhibitor was used to generate data for calculating the concentration of inhibitor resulting in 50% of the effect (e.g. IC50, the concentration of the competitor inhibiting glycine uptake of 50%). A solution was then immediately added containing [^3H]-glycine 60 nM (11-16 Ci/mmol) and 25 μM non-radioactive glycine. The plates were incubated with gentle shaking and the reaction was stopped by aspiration of the mixture and washing (three times) with ice-cold UB. The cells were lysed with scintillation liquid, shaken 3 hours and the radioactivity in the cells was counted using a scintillation counter.

| SMILES | IC50 |
| --- | --- |
| O=C(CN(Cc1ccc(F)c(F)c1)C(=O)c1cc2ccccc2s1)Nc1cccc(F)c1 [Example 66, Benzo[b]thiophene-2-carboxylic acid (3,4-difluoro-benzyl)-[(3-fluoro-phenylcarbamoyl)-methyl]-amide] | 0.167 µM |
| O=C(CN(Cc1ccccc1)C(=O)c1ccc(Cl)cc1)Nc1cccc(Cl)c1 [Example 16, N-Benzyl-4-chloro-N-[(3-chloro-phenylcarbamoyl)-methyl]-benzamide] | 0.156 µM |
| O=C(CN(Cc1cc(F)ccc1F)C(=O)c1ccc(Cl)cc1)Nc1cccc(Cl)c1 [Example 6, 4-Chloro-N-[(3-chloro-phenylcarbamoyl)-methyl]-N-(2,5-difluoro-benzyl)-benzamide] | 0.165 µM |
| O=C(CN(Cc1cc(F)cc(F)c1)C(=O)c1ccc(Cl)cc1)Nc1cccc(Cl)c1 [Example 3, 4-Chloro-N-[(3-chloro-phenylcarbamoyl)-methyl]-N-(3,5-difluoro-benzyl)-benzamide] | 0.184 µM |
| COc1ccc(C(=O)N(CC(=O)Nc2ccc(Cl)c(Cl)c2)c2ccccc2F)cc1 [Example 21, N-[(3,4-Dichloro-phenylcarbamoyl)-methyl]-N-(2-fluoro-phenyl)-4-methoxy-benzamide] | 0.315 µM |
| COc1ccc(C(=O)N(CC(=O)Nc2cccc(Cl)c2)Cc2c(Cl)cccc2Cl)cc1 [Example 19, N-[(3-Chloro-phenylcarbamoyl)-methyl]-N-(2,6-dichloro-benzyl)-4-methoxy-benzamide] | 0.164 µM |
| COc1ccc(C(=O)N(CC(=O)Nc2ccc(Cl)c(Cl)c2)c2ccccc2)cc1 [Example 41, N-[(3,4-Dichloro-phenylcarbamoyl)-methyl]-4-methoxy-N-phenyl-benzamide] | 0.276 µM |
| COc1ccc(C(=O)N(CC(=O)Nc2cccc(Cl)c2)Cc2c(F)cccc2F)cc1 [Example 11, N-[(3-Chloro-phenylcarbamoyl)-methyl]-N-(2,6-difluoro-benzyl)-4-methoxy-benzamide] | 0.1 µM |
| O=C(CN(Cc1ccccc1Cl)C(=O)c1cc2ccccc2s1)Nc1cccc(C(F)(F)F)c1 [Example 51, Benzo[b]thiophene-2-carboxylic acid (2-chloro-benzyl)-[(3-trifluoromethyl-phenylcarbamoyl)-methyl]-amide] | 0.06 µM |
| O=C(CN(Cc1c(F)cccc1F)C(=O)c1cc2ccccc2s1)Nc1ccc(F)c(Cl)c1 [Example 69, Benzo[b]thiophene-2-carboxylic acid [(3-chloro-4-fluoro-phenylcarbamoyl)-methyl]-(2,6-difluoro-benzyl)-amide] | 0.09 µM |
| COc1ccc(C(=O)N(CC(=O)Nc2cccc(Cl)c2)c2ccccc2)cc1 [Example 28, N-[(3-Chloro-phenylcarbamoyl)-methyl]-4-methoxy-N-phenyl-benzamide] | 0.267 µM |
| N#Cc1ccc(C(=O)N(CC(=O)Nc2cccc(C(F)(F)F)c2)Cc2ccccc2Cl)cc1 [Example 43, N-(2-Chloro-benzyl)-4-cyano-N-[(3-trifluoromethyl-phenylcarbamoyl)-methyl]-benzamide] | 0.339 µM |
| COc1ccc(C(=O)N(CC(=O)Nc2ccc(Cl)c(Cl)c2)Cc2cccs2)cc1 [Example 18, N-[(3,4-Dichloro-phenylcarbamoyl)-methyl]-4-methoxy-N-thiophen-2-ylmethyl-benzamide] | 0.257 µM |
| O=C(CN(Cc1cccs1)C(=O)c1ccc(Cl)cc1)Nc1cccc(Cl)c1 [Example 17, 4-Chloro-N-[(3-chloro-phenylcarbamoyl)-methyl]-N-thiophen-2-ylmethyl-benzamide] | 0.077 µM |
| COc1ccc(C(=O)N(CC(=O)Nc2cccc(Cl)c2)Cc2cccc(Cl)c2)cc1 [Example 14, N-(3-Chloro-benzyl)-N-[(3-chloro-phenylcarbamoyl)-methyl]-4-methoxy-benzamide] | 0.024 µM |
| O=C(CN(Cc1ccccc1Cl)C(=O)c1ccc(F)cc1)Nc1cccc(C(F)(F)F)c1 [Example 55, N-(2-Chloro-benzyl)-4-fluoro-N-[(3-trifluoromethyl-phenylcarbamoyl)-methyl]-benzamide] | 0.097 µM |
| O=C(CN(Cc1ccccc1Cl)C(=O)c1ccc(F)cc1)Nc1ccc(F)c(Cl)c1 [Example 76, N-(2-Chloro-benzyl)-N-[(3-chloro-4-fluoro-phenylcarbamoyl)-methyl]-4-fluoro-benzamide] | 0.159 µM |
| O=C(CN(Cc1cccc(F)c1F)C(=O)c1ccc(F)cc1)Nc1ccc(F)c(Cl)c1 [Example 84, N-[(3-Chloro-4-fluoro-phenylcarbamoyl)-methyl]-N-(2,3-difluoro-benzyl)-4-fluoro-benzamide] | 0.178 µM |
| O=C(CN(Cc1cccc(F)c1F)C(=O)c1ccc(OC(F)(F)F)cc1)Nc1ccc(F)c(Cl)c1 [Example 83, N-[(3-Chloro-4-fluoro-phenylcarbamoyl)-methyl]-N-(2,3-difluoro-benzyl)-4-trifluoromethoxy-benzamide] | 0.078 µM |
| O=C(CN(Cc1ccccc1)C(=O)c1ccc(F)cc1)Nc1cccc(Cl)c1 [Example 15, N-Benzyl-N-[(3-chloro-phenylcarbamoyl)-methyl]-4-fluoro-benzamide] | 0.312 µM |
| O=C(CN(Cc1c(F)cccc1F)C(=O)c1ccc(F)cc1)Nc1ccc(F)c(Cl)c1 [Example 78, N-[(3-Chloro-4-fluoro-phenylcarbamoyl)-methyl]-N-(2,6-difluoro-benzyl)-4-fluoro-benzamide] | 0.282 µM |
| O=C(CN(Cc1ccccc1Cl)C(=O)c1ccc(Cl)cc1)Nc1cccc(C(F)(F)F)c1 [Example 53, 4-Chloro-N-(2-chloro-benzyl)-N-[(3-trifluoromethyl-phenylcarbamoyl)-methyl]-benzamide] | 0.241 µM |

Further lines, results first:

| IC50 | SMILES |
| --- | --- |
| 0.06 µM | COc1ccccc1CN(CC(=O)Nc1cccc(Cl)c1)C(=O)c1ccc(Cl)cc1 [Example 102, 4-Chloro-N-[(3-chloro-phenylcarbamoyl)-methyl]-N-(2-methoxy-benzyl)-benzamide] |
| 0.199 µM | O=C(CN(Cc1ccco1)C(=O)c1ccc(Cl)cc1)Nc1cccc(Cl)c1 [Example 107, 4-Chloro-N-[(3-chloro-phenylcarbamoyl)-methyl]-N-furan-2-ylmethyl-benzamide] |
| 0.357 µM | COc1ccc(C(=O)N(CC(=O)Nc2ccc(Cl)c(Cl)c2)C2CCCC2)cc1 [Example 126, N-Cyclopentyl-N-[(3,4-dichloro-phenylcarbamoyl)-methyl]-4-methoxy-benzamide] |
| 0.359 µM | CC(C)(C)CCN(CC(=O)Nc1cccc(Cl)c1)C(=O)c1ccc(Cl)cc1 [Example 96, 4-Chloro-N-[(3-chloro-phenylcarbamoyl)-methyl]-N-(3,3-dimethyl-butyl)-benzamide] |
| 0.209 µM | Cc1ccccc1CN(CC(=O)Nc1cccc(Cl)c1)C(=O)c1ccc(Cl)cc1 [Example 104, 4-Chloro-N-[(3-chloro-phenylcarbamoyl)-methyl]-N-(2-methyl-benzyl)-benzamide] |
| 0.21 µM | COc1ccc(C(=O)N(CC(=O)Nc2ccc(Cl)c(Cl)c2)c2cccc(Cl)c2)cc1 [Example 117, N-(3-Chloro-phenyl)-N-[(3,4-dichloro-phenylcarbamoyl)-methyl]-4-methoxy-benzamide] |
| 0.306 µM | O=C(CN(Cc1cc(F)cc(F)c1)C(=O)c1ccc(Cl)cc1)Nc1ccc(F)c(Cl)c1 [Example 89, 4-Chloro-N-[(3-chloro-4-fluoro-phenylcarbamoyl)-methyl]-N-(3,5-difluoro-benzyl)-benzamide] |
| 0.021 µM | O=C(CN(Cc1cccc(Cl)c1)C(=O)c1ccc(Cl)cc1)Nc1cccc(Cl)c1 [Example 105, 4-Chloro-N-(3-chloro-benzyl)-N-[(3-chloro-phenylcarbamoyl)-methyl]-benzamide] |
| 0.142 µM | Cc1cccc(CN(CC(=O)Nc2cccc(Cl)c2)C(=O)c2ccc(Cl)cc2)c1 [Example 103, 4-Chloro-N-[(3-chloro-phenylcarbamoyl)-methyl]-N-(3-methyl-benzyl)-benzamide] |
| 0.259 µM | O=C(CN(C(=O)COc1ccc(Cl)cc1)c1ccccc1)Nc1ccc(Cl)c(Cl)c1 [Example 118, 2-(4-Chloro-phenoxy)-N-[(3,4-dichloro-phenylcarbamoyl)-methyl]-N-phenyl-acetamide] |
